Assays:
[1] = system: ND7 cells; test: X-gal staining, cationic lipid variations in ND7 cells; type: cell-based, rat/mouse; conditions: ND7, Liposome:DNA 3:1 w/w
Method: We determined whether LMD complexes could be bettered by incorporating poly cationic cholesterol lipids (WO 97/45442). CDAN (B198), ACHx (CJE52) and CTAP (B232) (FIG. 9) were used to make cationic liposomes in place of DC-Chol. Each cationic liposome system used was composed of 60 mol % of cationic lipid and 40 mol % of DOPE and prepared as described in Example 4. The following different LMD complex systems were prepared and compared: LMD(DC-Chol), LMD(B198), LMD(CJE52), and LMD(B232). All LMD systems were prepared with cationic liposomes (total lipid 20 μmol) and 0.6 mg of Mu1 peptide per 1.0 mg of DNA (pCMVβ), as described above.
Liposome:DNA (LD) complex mixtures (lipoplexes) were prepared for control experiments with a Liposome:DNA ratio of 3:1 (w/w), the optimal composition for transfection of ND7 cells.
Transfection in ND7 cells; ND7 cells were seeded in NGM (with 10% serum) at a density of approximately 4×10^4 cells per well, in a 24-well culture plate. After 24 h, cells were washed by brief exposure to NGM (serum free) and then treated with solutions containing LMD or LD complexes, prediluted with NGM (serum free) (final DNA concentration 2.5 μg/ml in all cases), for 1 h. Cells were then washed again and incubated for a further 48 h prior to processing for histochemical staining with X-gal. The number of cells stained blue were counted under an inverted microscope.

[2] = system: plasmid DNA (pCMVβ); test: gel retardation assay (DNA binding analysis)
Method: One microgram of pCMVβ was incubated with 0 μg (lane 2), 5 μg (lane 3), 10 μg (lane 4), 15 μg (lane 5), 20 μg (lane 6), 25 μg (lane 7) and 30 μg (lane 8) of BSA for 10 minutes at room temperature in 1× HBS. Samples were then analyzed on a 1% agarose gel for altered mobility.
When ratios of 0.5 (w/w) or greater were used, however, migration of both forms of pDNA was severely retarded.
C). The Polyomavirus protein Vp1 was much less efficient at preventing pDNA migration. pCMVβ (1 μg) was incubated with 2 μg (lane 2), 4 μg (lane 3), 6 μg (lane 4), 8 μg (lane 5), 16 μg (lane 6), 32 μg (lane 7) and 0 μg (lane 8) Vp1. Only ratios of 6 or higher (protein: pDNA, w/w) caused significant retardation of supercoiled pDNA (lane 6, lower band). Also, not until a ratio of 32 (w/w) was used was there any effect on relaxed pDNA (lane 7, upper band). In all gels lane 1 corresponds to 1 Kb DNA marker (BRL).
The purified peptides were reconstituted in sterile distilled H2O at 3 mg/mL. Peptide and pDNA were complexed in 20 μL HEPES buffered saline (137 mM NaCl, 5 mM KCl, 0.75 mM Na2HPO4, 19 mM HEPES, pH 7.4) for 20 minutes at room temperature. Peptide: pDNA complexes were subsequently analyzed by agarose gel electrophoresis (1%). Control incubations for general macromolecular pDNA interactions were performed with varying amounts of molecular biology grade purified bovine serum albumin (Sigma).
Varying amounts of purified peptide were incubated at room temperature in HBS for approximately 10 minutes and then analyzed by agarose gel electrophoresis. Without the addition of peptide, supercoiled and relaxed circular plasmid DNA (pDNA) migrated in the expected manner (FIG. 1, lane 8).

[3] = system: ND7 cells; test: β-galactosidase reporter gene assay, transfection of undifferentiated ND7 cells; type: cell-based, rat/mouse; conditions: peptide with cationic liposome, pCMVβ:liposome 1:3 w/w
Method: ND7 cells were seeded at a density of 5 ×10^4 cells/well in 24 well culture dishes 24 hrs prior to transfection. Immediately prior to transfection, cells were washed in serum-free media. Complexes were formed by incubating pCMVβ with Mu1 prior to the addition of the cationic liposome DC-Chol/DOPE. In each case 1 μg pCMVβ was complexed with 0.6, 6, 12, and 21 μg Mu1 peptide. Each of these combinations was then complexed with 3, 4 and 6 μg DC-Chol/DOPE. ND7 cells were exposed to transfection complexes for 2 hours then maintained at 37° C., 5% CO2 for another 24 hrs before being harvested and processed for β-galactosidase enzyme assay. Numbers represent means±SD, n=3.
pCMVβ plasmid DNA was complexed to various amounts of polycationic peptide and then mixed with cationic liposome at a ratio of 1:3 (pCMVβ:liposome; w/w). After being washed briefly in serum free media, ND7 cells were exposed to the […] complexes for two hours and then returned to serum containing media Twenty-four hours later the cells were harvested and processed for β-galactosidase enzyme assay. Each condition was performed in triplicate and each experiment replicated three times. Numbers represent means±SD.
ND7s are a well-characterized cell line derived from the fusion of a neuroblastoma N18Tg2) with neonatal rat sensory neurons ^28. The cell line was maintained in normal growth media (NGM) (Leibovitz's L-15 media (BRL) enriched with 10% Fetal bovine serum (BRL), 4 g/L glucose, 4 g/L sodium bicarbonate (BRL), 100 IU/mL penicillin/streptomycin (BRL)) at 37° C. and 5% CO2. The cells were plated onto 24 well plates (Costar) at a density that produced 70% confluence after 24 hours.
Since initial experiments determined that the presence of fetal bovine serum inhibited transfection of ND7 cells serum-free differentiation media was used for all transfections. Various amounts of DNA and liposome were placed in the bottom of a 7 mL sterile Bijou container (Bibby Sterilin Ltd., Staffordshire, U.K.), but not in contact with each other.
DNA and liposomes were combined by the addition of 400 μL serum-free differentiation media and gentle shaking. The DNA: liposome mixture was incubated at room temperature for 20 to 30 minutes before being applied to the cells. The DNA/liposome mixture was then applied to the cells and incubated at 37° C., 5% CO2 for 2 hours after which this media was replaced with complete media Twenty four to 48 hours later the cells were fixed and processed for X-gal histochemistry as described ^31 or harvested for β-galactosidase enzyme assays (Promega Corp.).
Transfection complexes including the test peptides were generated in the following manner. Various amounts of peptide was placed in the bottom of sterile polystyrene containers alongside, but not in contact with 1 μg·pCMVβ and mixed by adding 400 μl serum free NGM media The complexes were incubated at room temperature for 10 minutes after which DC-Chol/DOPE was added. The pDNA/peptide/liposome complex was further incubated at room temperature for 20 minutes and then administered to cells as above.
We examined the ability of Mu1 and Vp1 to enhance the transfection of a neuronal cell line by cationic liposomes using a β-Galactosidase reporter gene assay. ND7 cells were transfected with pCMVβ complexed to varying amounts of peptide and DC-Chol/DOPE. We have previously shown that the cationic liposome DC-Chol/DOPE is capable of efficiently transfecting the neuronally derived ND7 cell line ^31. […] Temporally, maximal levels of transgene expression are obtained between 48-60 hours post transfection. Therefore, in order to maximize the chance of detecting improvements in transfection we performed all our assays within 12-20 hours of transfection at a time when levels of reporter gene expression were lower. Previously we found a pDNA: liposome ratio of 1:3 (w/w) optimal for transfections in ND7 cells ^31. […]

[4] = charge ratios worked out from the sequence; type: physicochemical
Excerpt: Mu1 is a polycationic peptide comprised of 19 amino acids associated with the core complex of Adenovirus (Table 1) ^27, 32. We compared the DNA binding capacity of Mu1 with the mouse polyomavirus major capsid protein Vp1 by interaction with plasmid DNA in a gel retardation assay. Vp1 is a 19 amino acid peptide that contains a nuclear localization signal ^26 and contains fewer positively charged amino acids than Mu1. It was therefore predicted to have a lower DNA binding capacity.
The success of non-viral gene delivery vehicles as viable alternatives to virus vector-based systems is dependent on the development of complexes with higher and longer lasting transfection efficiencies. Since the initial identification of cationic liposomes as vehicles for the transfer of genetic material into cells there has been a large push to develop better cationic liposome formulations ^5, 7. Most attempts at improving cationic liposomes have been based on structural modifications to the molecule itself ^30. Novel formulations have been developed which have improved transfection efficiencies ^30. However, particular cell types behave differently in regards to cationic liposomal transfection. For example, we found the polypeptide Mu1 better at enhancing cationic liposome mediated transfection than Vp1. This was probably due to Mu1's greater charge ratio. While both peptides are approximately the same molecular weight, the overall charge ratio of Mu1 was more than twice that of Vp1 (Table 1). […] While a small shift in pDNA mobility was detected when 0.25 μg Mu1 was complexed to 1 μg pCMVβ, almost all of the plasmid was retained near the loading well following addition of 0.5 μg Mu1 (FIG. 1). A 0.5/1.0 (w/w) ratio of Mu1 to pCMVβ corresponds to a 1000/1 molar ratio. Each molecule of Mu1 contains 12 residues that could potentially carry a positive charge. The theoretical charge ratio of Mu1 to pCMVβ would then be 1.6 (12000 Mu1 cations to 7500 pCMVβ anions).

[5] = system: HeLa cells; test: β-galactosidase assay, alternative cationic peptides in HeLa cells; type: cell-based, human; conditions: DC-Chol:DOPE liposome:peptide:DNA 12:0.6:1, 30 min, DNA 1.0 μg/ml
Method: In order to examine the effects of various alternative cationic peptides on transfection activities, a series of liposome:cationic peptide:DNA complexes were prepared and their relative transfection abilities analysed in vitro. The peptides used were poly-lysine hydrochloride (average molecular weight 3970, Sigma), poly arginine hydrochloride (average molecular weight 11800, Sigma) a peptide derived from protein V, pV (p5, sequence shown below), a peptide analogue of Mu1 (V, sequence shown below) and Mu1 peptide itself. The p5 peptide and V peptide were synthesized using the same solid-phase peptide synthesis methodology as was used to prepare Mu1 peptide.
Each peptide was combined with cationic liposome (DC-Chol:DOPE 3:2 m/m) and DNA (pCMVβ) in the liposome:peptide:DNA ratio of 12:0.6:1 (w/w/w) as described in Example 4. The transfection activities were examined using HeLa cells (human epithelial cells). The cells were seeded at an approximate density of 5×10^4 per well in a 24-well culture plate in DMEM supplemented with 10% FCS and grown for 24 h in the presence of 5% CO2 at 37° C. Cells were washed by brief exposure to DMEM and then treated with solutions containing LMD or LD complexes, prediluted with OPTIMEM (Gibco) (final DNA concentration 1.0 μg/ml in all cases), for 30 min. Cells were then washed again and incubated for a further 48 h in DMEM supplemented with 10% FCS prior to harvesting. The level of β-galactosidase enzyme activity was determined with a standard assay kit (chemiluminescent, Roche).

In the case of `CC(C)CCCC(C)C1CCC2C3CC=C4CC(OC(=O)NCCNCCCNCCN)CCC4(C)C3CCC12C` (stereo not drawn) [B198], the “rank order in transfection efficiency, corresponding LD systems” value [1] is reported as “B198>DC-Chol>B232”.
In the case of `CC(C)CCC[C@@H](C)[C@H]1CC[C@H]2[C@@H]3CC=C4C[C@@H](OC(=O)NCCN(C)C)CC[C@]4(C)[C@H]3CC[C@]12C` [DC-Chol, 3β[N-(N′,N′-dimethylaminoethane)carbamoyl] cholesterol, reference compound], the “rank order in transfection efficiency, corresponding LD systems” value [1] is reported as “B198>DC-Chol>B232”.
For “NH2—Met—Ala—Pro—Lys—Arg—Lys—Ser—Gly—Val—Ser—Lys—Cys—Glu—Thr—Lys—Cys—Thr—Pro—Pro—OH (H-MAPKRKSGVSKCETKCTPP-OH; cysteine pairing not given here) [Vp1, 19 amino acid peptide of mouse polyomavirus major capsid protein Vp1, contains a nuclear localization signal, reference compound]”, the “ratio protein:pDNA at which there was first any effect on relaxed pDNA” value ([2]; 1 μg pCMVβ, 1% agarose gel) was 32 w/w, the “ratio protein:pDNA causing significant retardation of supercoiled pDNA” value ([2]; 1 μg pCMVβ, 1% agarose gel) was ≥ 6 w/w and the “effect on electrophoretic mobility of plasmid DNA” value ([2]; pDNA:protein ratios up to 1:8 (w/w)) was “no effect on the electrophoretic mobility”. For the same compound, the “improvement on transfection efficiency” value [3] was “no improvement on transfection efficiency” and the Charge/AA ratio [4] was 0.26.
For “RPRRRATTRRRTTTGTRRRRRRR [p5, peptide derived from protein V, pV]”, the “transfection activity compared to poly lysine and poly arginine complexes” value [5] was “excellent transfection activity”.
In the case of “VRRVHHRRRRVSHRRVRGG [peptide analogue of Mu1]”, the “transfection activity compared to poly lysine and poly arginine complexes” value [5] is reported as “excellent transfection activity”.
